Values after ≈ are worked out from the molar mass of the structure shown.
Columns and labels:
Escherichia coli [1] = experiment: Antibacterial activity against azide-resistant Escherichia coli J53 TET2 transconjugant with qnrVC3 gene expressing Vibrio cholerae 59 strain
Escherichia coli [2] = experiment: Antibacterial activity against azide-resistant Escherichia coli J53 SXT1 transconjugant with qnrVC3 gene expressing Vibrio cholerae 59 strain; format: functional
Escherichia coli [3] = experiment: Antibacterial activity against azide-resistant Escherichia coli J53 SXT2 transconjugant with qnrVC3 gene expressing Vibrio cholerae 59 strain
Escherichia coli [4] = experiment: Antibacterial activity against azide-resistant Escherichia coli J53 TET1 transconjugant with qnrVC3 gene expressing Vibrio cholerae 59 strain; format: functional
Escherichia coli [5] = experiment: Antibacterial activity against azide resistant Escherichia coli J53 transformed with pQE60-qnrVC3 gene Vibrio cholerae 59 strain; format: functional
Escherichia coli [6] = experiment: Antibacterial activity against azide-resistant Escherichia coli J53 containing plasmid pQE60; format: functional
Escherichia coli [7] = experiment: Antibacterial activity against azide-resistant Escherichia coli J53 SXT13-1 transconjugant with qnrVC3 gene expressing Vibrio cholerae 13 strain; format: functional

Molecule `CC1(C)S[C@@H]2[C@H](NC(=O)[C@H](N)c3ccccc3)C(=O)N2[C@H]1C(=O)O` [AMPICILLIN] has an MIC (Escherichia coli [1]) of 4 µg/mL (≈ 11.4 µM), an MIC (Escherichia coli [2]) of 4 µg/mL (≈ 11.4 µM) and an MIC (Escherichia coli [3]) of 4 µg/mL (≈ 11.4 µM). For the same molecule, the MIC (Escherichia coli [4]) was 6 µg/mL (≈ 17.2 µM).

Molecule `O=C(O)c1cn(C2CC2)c2cc(N3CCNCC3)c(F)cc2c1=O` [CIPROFLOXACIN] has an MIC (Escherichia coli [1]) of 0.064 µg/mL (≈ 0.193 µM) and an MIC (Escherichia coli [2]) of 0.047 µg/mL (≈ 0.142 µM).

For `C[C@H]1COc2c(N3CCN(C)CC3)c(F)cc3c(=O)c(C(=O)O)cn1c23.C[C@H]1COc2c(N3CCN(C)CC3)c(F)cc3c(=O)c(C(=O)O)cn1c23.O` [LEVOFLOXACIN], the MIC (Escherichia coli [1]) was 0.125 µg/mL, the MIC (Escherichia coli [5]) was 0.19 µg/mL and the MIC (Escherichia coli [2]) was 0.19 µg/mL. It also gave an MIC (Escherichia coli [3]) of 0.032 µg/mL, an MIC (Escherichia coli [6]) of 0.032 µg/mL and an MIC (Escherichia coli [4]) of 0.032 µg/mL.

Work on `CCn1cc(C(=O)O)c(=O)c2ccc(C)nc21` [NALIDIXIC ACID] yielded an MIC (Escherichia coli [1]) of 4 µg/mL (≈ 17.2 µM), an MIC (Escherichia coli [2]) of 3 µg/mL (≈ 12.9 µM) and an MIC (Escherichia coli [3]) of 3 µg/mL (≈ 12.9 µM). The MIC (Escherichia coli [4]) was 4 µg/mL (≈ 17.2 µM).

`CN[C@@H]1[C@H](O[C@H]2[C@H](O[C@H]3[C@H](O)[C@@H](O)[C@H](N=C(N)N)[C@@H](O)[C@@H]3N=C(N)N)O[C@@H](C)[C@]2(O)C=O)O[C@@H](CO)[C@H](O)[C@H]1O` [STREPTOMYCIN] was tested, and the MIC (Escherichia coli [1]) was greater than 192 µg/mL, the MIC (Escherichia coli [2]) was greater than 192 µg/mL and the MIC (Escherichia coli [3]) was greater than 192 µg/mL. It also gave an MIC (Escherichia coli [4]) greater than 192 µg/mL.

`CN(C)[C@@H]1C(O)=C(C(N)=O)C(=O)[C@@]2(O)C(O)=C3C(=O)c4c(O)cccc4[C@@](C)(O)[C@H]3C[C@@H]12` [TETRACYCLINE] gave an MIC (Escherichia coli [1]) of 64 µg/mL (≈ 144 µM), an MIC (Escherichia coli [2]) of 64 µg/mL (≈ 144 µM) and an MIC (Escherichia coli [7]) of 1.5 µg/mL (≈ 3.38 µM). It also gave an MIC (Escherichia coli [3]) of 64 µg/mL (≈ 144 µM) and an MIC (Escherichia coli [4]) of 64 µg/mL (≈ 144 µM).

`COc1cc(Cc2cnc(N)nc2N)cc(OC)c1OC` [TRIMETHOPRIM] was tested, and the MIC (Escherichia coli [1]) was greater than 32 µg/mL, the MIC (Escherichia coli [2]) was greater than 32 µg/mL and the MIC (Escherichia coli [3]) was greater than 32 µg/mL. For the same molecule, the MIC (Escherichia coli [4]) was greater than 32 µg/mL.

GENTAMICIN was tested, and the MIC (Escherichia coli [2]) was 0.75 µg/mL and the MIC (Escherichia coli [4]) was 0.75 µg/mL.
